pKi: −log10 of the molar value. Structures can show the parent of a compound that is named as a salt. Where two headings read alike, the source gives them in different places. Values belong to the molecule of their own block, whether it stands above or below them.
Tests used:
[1] = test system: ovariectomized female rats; test: Test F: object recognition memory test; assay type: in vivo, rat
striatal synaptosomes = test: Test D: striatal [3H]dopamine release; assay type: cell-based, rat
[2] = test system: nicotinic acetylcholine receptor (nAChR); test: Test C: 86Rb+ efflux from rat cortical synaptosomes; assay type: cell-based
hippocampal synaptosomes = test: Test E: [3H]ACh release; assay type: cell-based, rat
Description: Drug-induced release of [^3H]ACh from hippocampal synaptosomes was measured as described by Sullivan et al. (1997). (J. Pharmacol. Exptl. Ther. 283: 235-246). The F4 synaptosomal fraction was washed with Kreb's buffer containing 118.5 mM NaCl, 25 mM NaHCO3, 1.2 mM KCl, 1.2 mM KH2PO4, 2.5 mM CaCl2, 2.5 mM MgCl2, 10 mM glucose gassed with 95% O2/5% CO2 to pH 7.4 and re-suspended at 1 mg protein/mL. The synaptosomes were loaded with [^3H]choline by incubation with 0.8 μM [^3H]choline (2 Ci/mmol). Aliquots of the incubation mixture were then loaded into the perfusion chamber of a Brandell harvester and perfused with Kreb's buffer (37° C.) at a flow rate of 0.25 mL/min. Three-minute fractions were collected and measured for radioactivity. Drugs for study were administered as 20-s pulses. The [^3H]ACh release evoked by study compounds was normalized to (−)-nicotine-evoked release and to the total radioactivity accumulated by synaptosomes. Evoked release of [^3H]ACh from rat hippocampal synaptosomes was measured as the area under the peak above base release. The EC50 value is determined by nonlinear least squares regression analysis.

dopamine transporter = dopamine transporter (Homo sapiens, UniProt Q01959); test: Binding to dopamine transporter sites
serotonin transporter = serotonin transporter (Homo sapiens, UniProt P31645); test: Binding to serotonin transporter sites
dopamine D2 receptors = dopamine D2 receptors (Homo sapiens, UniProt P14416); test: Binding to dopamine D2 receptors
α4β2 nicotine receptor = α4β2 nicotine receptor (Rattus norvegicus, UniProt P09483+P12390); test: Test A: [3H]cytisine binding
[3] = biological target: α4β2 nicotinic acetylcholine receptor subtype (Rattus norvegicus, UniProt P09483+P12390); conditions: cited from earlier work
Male Wistar rats = conditions: rat, in vivo
nerve-injured mice = test: Test G: Chung model of neuropathic pain, inhibition of tactile sensitivity; assay type: in vivo, mouse
Description: After hemostasis is confirmed, the wound is sutured with 3-0 silk thread and the skin closed with sterile wound clips. The animals are fully mobile within thirty minutes of cessation of anesthetic. As a control, in a separate group of animals, a sham surgery identical to the above (but without nerve ligation) is performed. Nociception is evaluated by responsiveness to multiple applications (10 per hindpaw) of a single vF filament to the plantar surface of each hind paw. When the stimulus is of sufficient force, the mouse will lick, withdraw and/or shake the paw; this action represents the behavioral endpoint. In nerve-injured mice, a vF filament (#3.61) exerting 3.3 mN of force elicited 66±1.3% responsiveness on the paw ipsilateral to the injury.
Inhibition of Tactile Sensitivity. Varying doses of the compounds are administered to test for inhibition of tactile sensitivity. Percent inhibition is determined relative to the mean number of paw withdrawals (PW) elicited by force and according to the following equation: [formula] Each mouse serves as its own control.
Three groups of animals were used for this experiment. Animals in each group received an intrathecal injection of physiological saline to assess the control response. […] The responses were assessed as described above.

α7 subtype = α7 subtype (Homo sapiens, UniProt P36544); conditions: read-out: Ki at the α7 subtype; cited from earlier work
[4] = test system: nicotinic acetylcholine receptor as PC12 cells; conditions: cited from earlier work
[5] = biological target: human muscle nicotinic acetylcholine receptor subtype (Homo sapiens, UniProt P02708+P07510+P11230+Q07001); conditions: cited from earlier work
[6] = biological target: neuronal [3H]-cytisine binding site (Homo sapiens, UniProt P17787+P43681); conditions: read-out: Ki, neuronal [3H]-cytisine binding site; cited from earlier work
[7] = rat brain, compounds tested in racemic form, read-out: Ki-[3H]Cytisine

serotonin transporter, sequence (P31645 whole entry): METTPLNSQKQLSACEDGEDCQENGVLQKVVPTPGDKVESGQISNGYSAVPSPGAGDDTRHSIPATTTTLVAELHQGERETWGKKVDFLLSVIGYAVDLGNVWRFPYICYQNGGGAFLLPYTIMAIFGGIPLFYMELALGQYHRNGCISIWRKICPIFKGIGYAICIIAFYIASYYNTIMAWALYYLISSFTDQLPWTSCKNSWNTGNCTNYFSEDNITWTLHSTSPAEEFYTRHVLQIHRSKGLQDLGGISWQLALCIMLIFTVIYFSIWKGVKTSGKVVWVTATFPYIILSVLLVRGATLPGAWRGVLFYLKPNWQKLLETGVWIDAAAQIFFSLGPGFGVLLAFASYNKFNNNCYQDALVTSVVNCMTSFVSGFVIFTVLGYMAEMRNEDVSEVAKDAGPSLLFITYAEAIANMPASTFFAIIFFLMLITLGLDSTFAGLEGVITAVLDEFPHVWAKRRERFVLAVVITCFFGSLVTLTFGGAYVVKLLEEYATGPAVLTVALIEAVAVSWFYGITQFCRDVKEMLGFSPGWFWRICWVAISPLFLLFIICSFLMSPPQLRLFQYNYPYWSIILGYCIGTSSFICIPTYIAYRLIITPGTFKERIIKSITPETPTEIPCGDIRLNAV
dopamine D2 receptors, sequence (P14416 whole entry): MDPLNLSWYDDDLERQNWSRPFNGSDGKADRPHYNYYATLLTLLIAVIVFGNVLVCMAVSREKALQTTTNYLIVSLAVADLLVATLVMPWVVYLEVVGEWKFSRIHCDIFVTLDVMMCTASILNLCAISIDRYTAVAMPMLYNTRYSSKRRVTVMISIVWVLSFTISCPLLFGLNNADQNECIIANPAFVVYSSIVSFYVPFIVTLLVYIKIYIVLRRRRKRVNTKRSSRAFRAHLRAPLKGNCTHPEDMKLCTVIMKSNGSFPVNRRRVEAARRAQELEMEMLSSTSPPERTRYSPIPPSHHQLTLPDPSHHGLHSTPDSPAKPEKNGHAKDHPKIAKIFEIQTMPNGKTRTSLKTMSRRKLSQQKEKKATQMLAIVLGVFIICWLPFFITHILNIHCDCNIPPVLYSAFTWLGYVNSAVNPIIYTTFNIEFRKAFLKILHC
dopamine transporter, sequence (Q01959 whole entry): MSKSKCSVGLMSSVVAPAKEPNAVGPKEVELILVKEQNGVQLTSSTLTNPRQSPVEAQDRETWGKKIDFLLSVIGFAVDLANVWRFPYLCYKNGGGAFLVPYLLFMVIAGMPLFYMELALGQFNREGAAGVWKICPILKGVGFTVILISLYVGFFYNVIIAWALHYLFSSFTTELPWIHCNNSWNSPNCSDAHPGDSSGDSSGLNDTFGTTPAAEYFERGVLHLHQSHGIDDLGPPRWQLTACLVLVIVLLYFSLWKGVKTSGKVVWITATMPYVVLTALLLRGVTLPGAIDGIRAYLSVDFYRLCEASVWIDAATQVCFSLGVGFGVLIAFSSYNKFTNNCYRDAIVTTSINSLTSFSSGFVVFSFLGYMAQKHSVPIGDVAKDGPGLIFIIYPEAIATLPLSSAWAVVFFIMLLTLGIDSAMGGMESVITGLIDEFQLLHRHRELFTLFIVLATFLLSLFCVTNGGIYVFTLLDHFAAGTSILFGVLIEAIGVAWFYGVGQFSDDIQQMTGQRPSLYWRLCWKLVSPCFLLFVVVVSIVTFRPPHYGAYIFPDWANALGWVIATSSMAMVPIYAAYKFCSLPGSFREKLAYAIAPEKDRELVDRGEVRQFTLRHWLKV
α4β2 nicotine receptor, sequence (P09483 31-630): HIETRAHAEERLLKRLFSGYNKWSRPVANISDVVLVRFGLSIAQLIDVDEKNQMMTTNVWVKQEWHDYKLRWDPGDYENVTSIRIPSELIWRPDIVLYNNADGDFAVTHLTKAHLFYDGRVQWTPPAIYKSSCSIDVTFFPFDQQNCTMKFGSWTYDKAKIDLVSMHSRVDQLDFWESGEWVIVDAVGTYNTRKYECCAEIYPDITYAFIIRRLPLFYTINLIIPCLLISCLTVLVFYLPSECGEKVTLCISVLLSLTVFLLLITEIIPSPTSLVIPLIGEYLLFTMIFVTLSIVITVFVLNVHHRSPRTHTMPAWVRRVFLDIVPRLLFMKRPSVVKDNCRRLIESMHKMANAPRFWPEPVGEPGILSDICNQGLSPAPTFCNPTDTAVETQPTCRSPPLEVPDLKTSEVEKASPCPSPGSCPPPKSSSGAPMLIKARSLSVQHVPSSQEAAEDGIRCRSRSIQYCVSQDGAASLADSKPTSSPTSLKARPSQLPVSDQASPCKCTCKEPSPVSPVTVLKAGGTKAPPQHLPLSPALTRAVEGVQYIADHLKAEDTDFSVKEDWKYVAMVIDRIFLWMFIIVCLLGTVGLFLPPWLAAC
α4β2 nicotine receptor, sequence (P12390 25-500): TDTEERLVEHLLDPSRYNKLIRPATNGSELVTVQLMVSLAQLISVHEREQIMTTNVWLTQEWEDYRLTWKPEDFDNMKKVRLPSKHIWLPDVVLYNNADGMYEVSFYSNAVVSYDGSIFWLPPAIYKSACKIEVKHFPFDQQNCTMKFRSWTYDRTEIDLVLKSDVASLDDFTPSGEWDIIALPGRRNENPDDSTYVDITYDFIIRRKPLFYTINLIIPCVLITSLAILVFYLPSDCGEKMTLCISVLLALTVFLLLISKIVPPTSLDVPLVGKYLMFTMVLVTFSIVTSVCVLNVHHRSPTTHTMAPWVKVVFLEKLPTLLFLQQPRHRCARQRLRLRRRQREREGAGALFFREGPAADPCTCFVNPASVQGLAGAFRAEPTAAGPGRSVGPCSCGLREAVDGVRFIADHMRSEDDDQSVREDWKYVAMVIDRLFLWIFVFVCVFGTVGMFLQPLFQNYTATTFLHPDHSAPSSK
human muscle nicotinic acetylcholine receptor subtype, sequence (P11230 24-501): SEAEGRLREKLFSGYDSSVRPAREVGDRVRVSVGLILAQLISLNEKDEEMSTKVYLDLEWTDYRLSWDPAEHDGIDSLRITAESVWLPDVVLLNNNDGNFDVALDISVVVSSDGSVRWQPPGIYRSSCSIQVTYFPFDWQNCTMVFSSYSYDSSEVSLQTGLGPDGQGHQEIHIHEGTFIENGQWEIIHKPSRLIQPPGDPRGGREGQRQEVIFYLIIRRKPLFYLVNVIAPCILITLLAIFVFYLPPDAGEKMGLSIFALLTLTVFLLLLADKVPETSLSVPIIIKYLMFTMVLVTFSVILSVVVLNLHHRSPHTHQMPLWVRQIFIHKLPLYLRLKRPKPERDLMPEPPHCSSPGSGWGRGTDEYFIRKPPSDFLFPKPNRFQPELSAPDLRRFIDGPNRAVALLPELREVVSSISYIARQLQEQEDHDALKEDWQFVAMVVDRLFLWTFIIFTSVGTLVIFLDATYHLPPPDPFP
human muscle nicotinic acetylcholine receptor subtype, sequence (Q07001 22-517): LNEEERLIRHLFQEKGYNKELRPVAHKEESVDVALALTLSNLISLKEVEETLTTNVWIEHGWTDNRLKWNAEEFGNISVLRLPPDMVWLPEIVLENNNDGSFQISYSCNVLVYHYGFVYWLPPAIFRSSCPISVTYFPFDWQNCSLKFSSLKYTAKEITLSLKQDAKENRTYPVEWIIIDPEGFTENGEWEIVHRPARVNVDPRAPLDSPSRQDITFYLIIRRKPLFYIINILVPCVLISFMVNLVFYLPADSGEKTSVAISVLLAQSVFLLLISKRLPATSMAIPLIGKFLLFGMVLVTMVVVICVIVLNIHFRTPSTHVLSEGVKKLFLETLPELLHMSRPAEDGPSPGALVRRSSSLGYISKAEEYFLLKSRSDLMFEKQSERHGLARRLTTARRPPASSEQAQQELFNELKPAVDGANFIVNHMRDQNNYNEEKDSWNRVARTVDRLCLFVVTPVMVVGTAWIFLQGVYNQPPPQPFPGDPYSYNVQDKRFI
human muscle nicotinic acetylcholine receptor subtype, sequence (P02708 21-457): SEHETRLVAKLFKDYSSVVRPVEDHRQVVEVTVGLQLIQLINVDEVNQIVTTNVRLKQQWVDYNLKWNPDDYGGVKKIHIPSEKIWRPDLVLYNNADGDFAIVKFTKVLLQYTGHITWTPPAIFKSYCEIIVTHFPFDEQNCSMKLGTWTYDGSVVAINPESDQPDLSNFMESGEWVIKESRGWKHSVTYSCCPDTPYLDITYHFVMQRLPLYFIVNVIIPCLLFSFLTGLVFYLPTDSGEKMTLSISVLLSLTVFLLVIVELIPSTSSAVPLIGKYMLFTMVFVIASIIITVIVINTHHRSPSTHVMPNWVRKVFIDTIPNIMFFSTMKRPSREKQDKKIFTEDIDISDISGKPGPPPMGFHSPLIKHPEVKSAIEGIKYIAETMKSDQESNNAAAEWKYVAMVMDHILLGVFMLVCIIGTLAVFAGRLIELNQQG
human muscle nicotinic acetylcholine receptor subtype, sequence (P07510 23-517): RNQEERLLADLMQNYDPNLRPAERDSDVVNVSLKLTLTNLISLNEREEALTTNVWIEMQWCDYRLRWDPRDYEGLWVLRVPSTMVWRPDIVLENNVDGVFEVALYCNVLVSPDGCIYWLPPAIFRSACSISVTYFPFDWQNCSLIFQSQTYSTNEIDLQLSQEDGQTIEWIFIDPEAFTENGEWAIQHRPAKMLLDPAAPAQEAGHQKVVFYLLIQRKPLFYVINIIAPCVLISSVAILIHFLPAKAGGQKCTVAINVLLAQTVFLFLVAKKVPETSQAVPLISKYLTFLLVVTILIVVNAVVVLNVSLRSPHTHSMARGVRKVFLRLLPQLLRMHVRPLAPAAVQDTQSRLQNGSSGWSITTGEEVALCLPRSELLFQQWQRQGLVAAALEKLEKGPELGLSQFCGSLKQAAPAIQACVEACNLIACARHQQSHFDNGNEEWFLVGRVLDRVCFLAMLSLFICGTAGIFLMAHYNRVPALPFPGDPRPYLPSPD
α4β2 nicotinic acetylcholine receptor subtype, sequence (P09483 31-630): as the sequence (P09483 31-630) above
α4β2 nicotinic acetylcholine receptor subtype, sequence (P12390 25-500): as the sequence (P12390 25-500) above

SMILES: COc1cc2c(cc1OC)C(=O)C(CC1CCN(Cc3ccccc3)CC1)C2 (centres unmarked) [ARICEPT, reference compound]
time spent exploring the new object ([1]; rat, in vivo): 60.1±5.4 % (SEM)

SMILES: CN1CCCCC1C1CCc2ccccc2O1 (single isomer, unassigned) (as salt: salt) [Compound 1, erythro-2-(1-Methylpiperidin-2-yl)chroman]
melting point: 164 to 166 °C

SMILES: CN1CCCCC1C1CCc2ccc(O)cc2O1 (stereo not drawn) [Compound 4, erythro-7-Hydroxy-2-(1-methylpiperidin-2-yl)chroman]
[3H]Dopamine release (striatal synaptosomes): Low to moderate activity
86Rb+ efflux [2]: High intrinsic activity
[3H]ACh release (hippocampal synaptosomes): High intrinsic activity

SMILES: CN1CCCCC1C1CCc2ccc(O)cc2O1 (single isomer, unassigned) [Compound 8, threo-7-Hydroxy-2-(1-methylpiperidin-2-yl)chroman]
pKi (dopamine transporter): < 5.00
pKi (serotonin transporter): < 5.00
pKi (dopamine D2 receptors): < 5.00

SMILES: CN1CCCCC1C1CCc2ccccc2O1 (single isomer, unassigned) [Compound 1, erythro-2-(1-Methylpiperidin-2-yl)chroman]
pKi (dopamine transporter): < 5.00
stimulation of [3H]dopamine release (in words) (striatal synaptosomes): failed to stimulate the release
pKi (serotonin transporter): < 5.00
peak response of 86Rb+ release (in words) [2]: could match the peak response of S-(−)-nicotine
potency to stimulate the release of 86Rb+ (in words) [2]: lower potency
pKi (dopamine D2 receptors): < 5.00

SMILES: O=c1cccc2n1C[C@@H]1CNC[C@H]2C1 [Cytisine, reference compound]
pKi (α4β2 nicotine receptor; Ki-[3H]Cytisine): 9.05
pKi (α4β2 nicotine receptor; read-out: Ki-[3H]Cytisine): 8.56

SMILES: Cc1ncccc1OC[C@@H]1CCCN1 [ABT-089 (S)]
less potent than ABT-594 as an inhibitor of [3H]-nicotine binding [3]: about 300 fold

SMILES: CN1CCCCC1C1CCc2ccc(O)cc2O1 (stereo not drawn) [Compound 3, erythro-7-Hydroxy-2-(1-methylpiperidin-2-yl)chroman]
pKi (dopamine transporter): < 5.00
concentration at which peak effects on [3H]dopamine release are obtained (striatal synaptosomes): ~10 µM
effect on K+-evoked release of [3H]dopamine (in words) (striatal synaptosomes): appeared to suppress
stimulation of [3H]dopamine release (in words) (striatal synaptosomes): dose-dependent stimulation
pKi (serotonin transporter): < 5.00
time of death post-injection (Male Wistar rats; male, Wistar, ip): ≤ 4 min
lethal effects antagonized by mecamylamine pretreatment (Male Wistar rats): three of the four animals
observed effect after administration (Male Wistar rats; ip): severe convulsions
potency to stimulate the release of 86Rb+ (in words) ([2]; compound 3 at 1, 5, 10 and 100 μM, compound 1 at 10 and 100 μM, versus S-(−)-nicotine, FIG. 9): comparable potency
stimulation of [3H]ACh release (in words) (hippocampal synaptosomes): can stimulate the release
pKi (dopamine D2 receptors): < 5.00
inhibition of tactile sensitivity (in words) (nerve-injured mice; intrathecal 30, 60 and 100 pmol): dose-dependent inhibition
inhibition of tactile sensitivity (nerve-injured mice; intrathecal, highest dose tested 100 pmol, FIG. 13): 60%

SMILES: CNCC/C=C/c1cccnc1 [RJR-2403]
pKi (α7 subtype): 4.44
receptor activation (in words) [4]: does not significantly activate
receptor activation (in words) [5]: does not significantly activate

SMILES: Cc1cc([C@@H]2CCCN2C)on1 [ABT-418]
pKi [6]: 8.35

pKi (α4β2 nicotine receptor; [7]): 5.05
SMILES: COc1ccc2c(c1)CC(CC1CCCCN1C)=C2 (racemic) [Compound 14, 1-Methyl-2-(6-methoxyinden-2-yl)methylpiperidine hydrochloride]

SMILES: CN1CCCCC1C1CCc2c(O)cccc2O1 (stereo not drawn) [Compound 5, erythro-5-Hydroxy-2-(1-methylpiperidin-2-yl)chroman]
pKi (dopamine transporter): < 5.00
pKi (serotonin transporter): < 5.00
pKi (dopamine D2 receptors): < 5.00

SMILES: CN1CCCC1C1CCc2ccc(O)cc2O1 (single isomer, unassigned) [Compound 11, erythro-7-Hydroxy-2-(1-methylpyrrolidin-2-yl)chroman]
stimulation of [3H]dopamine release (in words) (striatal synaptosomes; FIG. 10, compound 1 at doses of up to 10 μM): stimulates the release
[3H]Dopamine release (striatal synaptosomes; Table 2 summary in words): High intrinsic activity
exploration times versus saline-treated controls (in words) ([1]; exploration phase, 1 μmol/kg/day): not significantly different
time spent exploring the new object ([1]; recognition phase four hours after exploration, after 7 days s.c. osmotic mini pump, compound 11 1 μmol/kg/day, ARICEPT 1 mg/kg/day): 80.5±5 % (SEM)
[3H]ACh release (hippocampal synaptosomes; Table 2 summary in words): No intrinsic activity
stimulation of [3H]ACh release (in words) (hippocampal synaptosomes; cortical synaptosomes as worded, FIG. 11): little intrinsic activity

pKi (α4β2 nicotine receptor; [7]): 5.10
SMILES: CN1CCCCC1CC1=Cc2ccccc2C1 (racemic) [Compound 13, 1-Methyl-2-(2-indenyl)methylpiperidine hydrochloride]

SMILES: CN1CCC[C@H]1c1cccnc1 [S-(−)-nicotine, reference compound]
stimulation of [3H]dopamine release (in words) (striatal synaptosomes): dose-dependent

pKi (α4β2 nicotine receptor; [7]): < 5.00
SMILES: CN1CCCCC1CC1=Cc2ccc(O)cc2C1 (racemic) [Compound 15, 1-Methyl-2-(6-hydroxyinden-2-yl)methylpiperidine hydrochloride]
